The values below come from patent US20110160265A1, “METHOD OF TREATING MOTOR DISORDERS WITH ALPHA-2B ADRENERGIC RECEPTOR AGONISTS” (priority 2007, published 2011).

Molecules are shown by their SMILES.

The subject of assay [1] is nigrostriatal-lesioned rats. Kind of assay: Nigrostriatal-lesion-induced rotational behavior following amphetamine administration. The following applies: relative to Vehicle+Amphetamine, drug 1 0.3 mg/kg PO, drug 2 amphetamine SC. The class given is in vivo. How it is done:
Table 4, below, indicates the changes in rotational behavior in nigrostriatal-lesioned rats treated with various alpha-2B receptor agonists and the psychostimulant amphetamine. Drug 1 was administered 15 minutes before amphetamine, and 10 minutes post-amphetamine, the animals were placed into the rotometer for 30 or 60 minutes. “% decrease rotations” indicates the percentage decrease in total rotations relative to the Vehicle+Amphetamine group. ^⋄ indicates significant difference (P<0.05) relative to Vehicle+Amphetamine treated animals. * indicates significant difference (P<0.05) relative to Vehicle+Vehicle treated animals.
Amphetamine-induced rotational behavior. Pre-Apomorphine-screened (rotated) rats (with lesions ≧95% DA cell loss) were purchased from Charles Rivers Laboratories. Animals were given ˜4 days to acclimate prior to testing. All animals weighted 250-300 g at the beginning of the study. Animals were treated with various combinations of vehicle or alpha-2B receptor agonist and amphetamine.
Vehicle or alpha-2B receptor agonist was administered (p.o.) 15 minutes before amphetamine (2 mg/kg s.c.). Rotational behavior was assessed 15 minutes post-amphetamine administration and was monitored for 60 minutes using a Rotometer system from San Diego Instruments (San Diego, Calif.).
For i.p. administration, the compounds are formulated in H2O with 0.5% DMSO and given in a volume of 1 ml/kg body weight by injecting into the intraperitoneal cavity. For p.o. administration, the compounds are formulated in H2O with 0.5% DMSO and given in a volume of 2 ml/kg body weight using a 25-gauge, 1.5 inch gavage needle that is slowly inserted through the esophagus into the stomach.

Another assay deals with T1, alpha-2A receptor (Homo sapiens, UniProt P08913).
T1 sequence (P08913 1-465): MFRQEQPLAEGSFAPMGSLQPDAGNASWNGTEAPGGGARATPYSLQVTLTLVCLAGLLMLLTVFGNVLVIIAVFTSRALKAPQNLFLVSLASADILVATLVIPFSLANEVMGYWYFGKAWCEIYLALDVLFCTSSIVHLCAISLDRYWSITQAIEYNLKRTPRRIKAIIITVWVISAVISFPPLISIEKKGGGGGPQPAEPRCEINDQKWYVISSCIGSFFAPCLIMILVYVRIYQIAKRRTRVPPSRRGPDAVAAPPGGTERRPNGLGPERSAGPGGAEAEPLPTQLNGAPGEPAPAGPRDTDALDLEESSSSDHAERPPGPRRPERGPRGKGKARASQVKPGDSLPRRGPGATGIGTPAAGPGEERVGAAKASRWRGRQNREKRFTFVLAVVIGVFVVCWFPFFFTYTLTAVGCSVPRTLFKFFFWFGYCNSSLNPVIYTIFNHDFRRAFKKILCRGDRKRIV
Nature of the assay: Alpha-2A receptor activity (efficacy relative to brimonidine). The following applies: in words; b7: lacks significant activity = less than 40% of the efficacy of brimonidine at alpha-2A. The class given is cell-based. The source says:
The methods of the present invention use alpha-2 agonists lacking significant activity at the alpha-2A receptor subtype. An agonist lacks significant alpha-2A receptor activity if the agonist has less than 40% of the efficacy of brimonidine at the alpha-2A receptor subtype. Compounds of the invention include, therefore, alpha-2B receptor agonists lacking significant alpha-2A activity; alpha 2B/2C receptor agonists lacking significant alpha-2A activity; and alpha-2C receptor agonists lacking significant alpha-2A activity.
Efficacy, also known as intrinsic activity, is a measure of maximal receptor activation achieved by a compound and can be determined using any accepted assay of alpha-adrenergic receptor activation, such as a cAMP or Receptor Selection and Amplification Technology (RSAT). Efficacy is represented as a ratio or percentage of the maximal effect of the drug to the maximal effect of a standard agonist for each receptor subtype. Brimonidine, itself an alpha-2B receptor agonist (it is has 100% the efficacy of brimonidine at the alpha-2B adrenergic receptor), is used as the standard agonist for the alpha-2B adrenergic receptors.
Agonist activity can be characterized using any of a variety of routine assays, including, for example, Receptor Selection and Amplification Technology (RSAT) assays (Messier et al., Pharmacol. Toxicol. 76:308-11 (1995); cyclic AMP assays (Shimizu et al., J. Neurochem. 16:1609-1619 (1969)); and cytosensor microphysiometry assays (Neve et al., J. Biol. Chem. 267:25748-25753 (1992)). Such assays generally are performed using cells that naturally express only a single alpha-adrenergic receptor subtype, or using transfected cells expressing a single recombinant alpha-adrenergic receptor subtype. The adrenergic receptor can be a human receptor or homolog of a human receptor having a similar pharmacology.
The RSAT assay measures receptor-mediated loss of contact inhibition resulting in selective proliferation of receptor-containing cells in a mixed population of confluent cells. The increase in cell number is assessed with an appropriate detectable marker gene such as beta-galactosidase, if desired, in a high throughput or ultra high throughput assay format. Receptors that activate the G protein, Gq, elicit the proliferative response. Alpha-adrenergic receptors, which normally couple to Gi, activate the RSAT response when coexpressed with a hybrid Gq protein containing a Gi receptor recognition domain, designated Gq/i5. Conklin et al., Nature 363:274-6 (1993)).
As an example, an RSAT assay can be performed essentially as follows. NIH-3T3 cells are plated at a density of 2×10^6 cells in 15 cm dishes and maintained in Dulbecco's modified Eagle's medium supplemented with 10% calf serum. One day later, cells are cotransfected by calcium phosphate precipitation with mammalian expression plasmids encoding p-SV-β-galactosidase (5-10 μg), receptor (1-2 μg) and G protein (1-2 μg). Carrier DNA, for example 40 μg salmon sperm DNA, also can be included to increase transfection efficiency. Fresh media is added on the following day; one to two days later, cells are harvested and frozen in 50 assay aliquots. Transfected cells are thawed, and 100 μl of cells added to 100 μl aliquots of compound to be tested, with various concentrations assayed in triplicate, for example, in 96-well plates. Incubation continues for 72 to 96 hours at 37° C. After washing with phosphate-buffered saline, β-galactosidase activity is determined by adding 200 μl of chromogenic substrate (3.5 mM O-nitrophenyl-β-D-galactopyranoside/0.5% NP-40 in phosphate buffered saline), incubating overnight at 30° C., and measuring optical density at 420 nm. The absorbancy is a measure of enzyme activity, which depends on cell number and reflects receptor-mediated cell proliferation. The EC50 and maximal effect (i.e., efficacy) of each drug at each receptor is determined.

`O=C1c2ccccc2CC[C@H]1Cc1c[nH]c(=S)[nH]1` [Compound E]: the “% DECREASE ROTATIONS” value in assay [1] amounted to 58% ^⋄ *. For the same compound, the alpha-2A receptor activity entry on alpha-2A receptor is “lack significant alpha-2A receptor activity”.
